Literature values as cited in patent publication US9579356B2, “Dietary supplements for reducing cholesterol levels” (RELIV INTERNATIONAL INC., priority 2006, dated 2017).

Legend:
[1] = system: patients with LDL-cholesterol levels exceeding 160 mg/dl; details: after eight weeks; policosanol 10 mg/day, lovastatin 20 mg/day, simvastatin 10 mg/day
[2] = system: rats; details: dietary supplementation
[3] = system: human neutrophils
[4] = system: rats which were fed a high cholesterol diet
[5] = system: individuals having initial total cholesterol levels exceeding 260 mg/dL; details: 15 grams daily, three weeks
[6] = system: individuals having total cholesterol levels ranging from 210 to 326 mg/dL; details: 3.5 g daily, after two weeks

CC[C@H](C)C(=O)O[C@H]1C[C@@H](C)C=C2C=C[C@H](C)[C@H](CC[C@@H]3C[C@@H](O)CC(=O)O3)[C@H]21 [lovastatin]
reduced LDL-cholesterol levels [1]: about 22%

O=C(O)[C@@H](O)[C@@H](O)[C@H](O)[C@@H](O)C(=O)[O-].[K+] [potassium hydrogen D-glucarate]
lowering VLDL cholesterol [2]: effective
lowering total triglycerides [2]: effective

Oc1ccc(C=Cc2cc(O)cc(O)c2)cc1 [Resveratrol]
leukotriene production [3]: induce
cholesterol and triglyceride liver deposition [4]: inhibited
low-density lipoprotein (LDL) cholesterol levels [4]: lowered
ratio of total cholesterol to high-density lipoprotein (HDL) cholesterol [4]: reduced
serum triglyceride levels [4]: lowered

O=C([O-])[C@@H](O)[C@@H](O)[C@H](O)[C@@H](O)C(=O)[O-].[Ca+2] [calcium D-glucarate]
lowering VLDL cholesterol [2]: did not demonstrate similar effects
lowering total triglycerides [2]: did not demonstrate similar effects

beta-glucan
reduced LDL cholesterol [5]: about 23%
reduced total cholesterol [5]: about 19%
reduction in total cholesterol [6]: 5.4%
